Laboratory results published in ChEMBL document CHEMBL1201862, “PubChem BioAssay data set” (2004).
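48-hour exposure; five concentrations; linearly interpolated endpoints. GI50 marks 50% less growth.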 Activity calls are given as the source filed them. Cut-off read from the data, not from the text of the source: active = GI50 up to about 1.1 µM and inactive = higher.

Tests used:
Assay in all cases: NCI-60 cell line screen, 48 h
SF-268 = system: SF-268
A498 = system: A498
M14 = system: M14
OVCAR-8 = system: OVCAR-8
IGROV-1 = system: IGROV-1
HOP-18 = system: HOP-18
SK-MEL-28 = system: SK-MEL-28
SW-620 = system: SW-620
UACC-257 = system: UACC-257
SF-539 = system: SF-539
HCT-15 = system: HCT-15
786-0 = system: 786-0
NCI-H460 = system: NCI-H460
M19-MEL = system: M19-MEL
HOP-92 = system: HOP-92
CCRF-CEM = system: CCRF-CEM
OVCAR-5 = system: OVCAR-5
COLO 205 = system: COLO 205
SK-OV-3 = system: SK-OV-3
HCC 2998 = system: HCC 2998
A549 = system: A549
HL-60 = system: HL-60
UACC-62 = system: UACC-62
SK-MEL-5 = system: SK-MEL-5
SNB-75 = system: SNB-75
OVCAR-4 = system: OVCAR-4
TK-10 = system: TK-10
HT-29 = system: HT-29
DMS-273 = system: DMS-273
SN12C = system: SN12C
HOP-62 = system: HOP-62
SNB-19 = system: SNB-19
KM12 = system: KM12
RXF 393 = system: RXF 393
HCT-116 = system: HCT-116
EKVX = system: EKVX
DMS-114 = system: DMS-114
UO-31 = system: UO-31
RXF 631 = system: RXF 631
CAKI-1 = system: CAKI-1
Malme-3M = system: Malme-3M
LOX IMVI = system: LOX IMVI
RPMI-8226 = system: RPMI-8226
DLD-1 = system: DLD-1
XF498 = system: XF498
ACHN = system: ACHN
SNB-78 = system: SNB-78
NCI-H522 = system: NCI-H522
LXFL 529 = system: LXFL 529
OVCAR-3 = system: OVCAR-3
KM-20L2 = system: KM-20L2
SF-295 = system: SF-295
K562 = system: K562
U-251 = system: U-251
SK-MEL-2 = system: SK-MEL-2
MOLT-4 = system: MOLT-4
NCI-H23 = system: NCI-H23

`CCCCCCCCCCCCCCCCc1c(O)nc(NN)nc1C(=O)OC` was tested, and the GI50 (SF-268) was > 50 µM (inactive), the GI50 (A498) was > 50 µM (inactive) and the GI50 (M14) was > 50 µM (inactive). For the same compound, the GI50 (OVCAR-8) was > 50 µM (inactive), the GI50 (IGROV-1) was > 50 µM (inactive) and the GI50 (HOP-18) was > 50 µM (inactive). The GI50 (SK-MEL-28) was > 50 µM (inactive), the GI50 (SW-620) was > 50 µM (inactive) and the GI50 (UACC-257) was > 50 µM (inactive). For the same compound, the GI50 (SF-539) was > 50 µM (inactive), the GI50 (HCT-15) was greater than 50 µM and the GI50 (786-0) was > 50 µM (inactive). The GI50 (NCI-H460) was > 50 µM (inactive), the GI50 (M19-MEL) was > 50 µM (inactive) and the GI50 (HOP-92) was 22.4 µM (inactive). For the same compound, the GI50 (CCRF-CEM) was > 50 µM (inactive), the GI50 (OVCAR-5) was > 50 µM (inactive) and the GI50 (COLO 205) was > 50 µM (inactive). The GI50 (SK-OV-3) was > 50 µM (inactive), the GI50 (HCC 2998) was > 50 µM (inactive) and the GI50 (A549) was > 50 µM (inactive). The GI50 (HL-60) was > 50 µM (inactive), the GI50 (UACC-62) was > 50 µM (inactive) and the GI50 (SK-MEL-5) was > 50 µM (inactive). For the same compound, the GI50 (SNB-75) was > 50 µM (inactive), the GI50 (OVCAR-4) was > 50 µM (inactive) and the GI50 (TK-10) was > 50 µM (inactive). The GI50 (HT-29) was > 50 µM (inactive), the GI50 (DMS-273) was > 50 µM (inactive) and the GI50 (SN12C) was > 50 µM (inactive). For the same compound, the GI50 (HOP-62) was > 50 µM (inactive), the GI50 (SNB-19) was > 50 µM (inactive) and the GI50 (KM12) was > 50 µM (inactive). For the same compound, the GI50 (RXF 393) was > 50 µM (inactive), the GI50 (HCT-116) was > 50 µM (inactive) and the GI50 (EKVX) was > 50 µM (inactive). The GI50 (DMS-114) was > 50 µM (inactive), the GI50 (UO-31) was > 50 µM (inactive) and the GI50 (RXF 631) was > 50 µM (inactive). For the same compound, the GI50 (CAKI-1) was > 50 µM (inactive), the GI50 (Malme-3M) was > 50 µM (inactive) and the GI50 (LOX IMVI) was > 50 µM (inactive). For the same compound, the GI50 (RPMI-8226) was > 50 µM (inactive), the GI50 (DLD-1) was > 50 µM (inactive) and the GI50 (XF498) was > 50 µM (inactive). For the same compound, the GI50 (ACHN) was > 50 µM (inactive), the GI50 (SNB-78) was > 50 µM (inactive) and the GI50 (NCI-H522) was > 50 µM (inactive). The GI50 (LXFL 529) was > 50 µM (inactive), the GI50 (OVCAR-3) was > 50 µM (inactive) and the GI50 (KM-20L2) was > 50 µM (inactive). For the same compound, the GI50 (SF-295) was > 50 µM (inactive), the GI50 (K562) was > 50 µM (inactive) and the GI50 (U-251) was > 50 µM (inactive). For the same compound, the GI50 (SK-MEL-2) was > 50 µM (inactive), the GI50 (MOLT-4) was > 50 µM (inactive) and the GI50 (NCI-H23) was > 50 µM (inactive).
